Test results from doi:10.1101/2023.11.24.568596v1 (biorxiv, 2023).

Assays:
Details in all cases: binder
EphB1 = target: T1, EphB1 (Homo sapiens, UniProt P54762)
T1 sequence (P54762 1-984): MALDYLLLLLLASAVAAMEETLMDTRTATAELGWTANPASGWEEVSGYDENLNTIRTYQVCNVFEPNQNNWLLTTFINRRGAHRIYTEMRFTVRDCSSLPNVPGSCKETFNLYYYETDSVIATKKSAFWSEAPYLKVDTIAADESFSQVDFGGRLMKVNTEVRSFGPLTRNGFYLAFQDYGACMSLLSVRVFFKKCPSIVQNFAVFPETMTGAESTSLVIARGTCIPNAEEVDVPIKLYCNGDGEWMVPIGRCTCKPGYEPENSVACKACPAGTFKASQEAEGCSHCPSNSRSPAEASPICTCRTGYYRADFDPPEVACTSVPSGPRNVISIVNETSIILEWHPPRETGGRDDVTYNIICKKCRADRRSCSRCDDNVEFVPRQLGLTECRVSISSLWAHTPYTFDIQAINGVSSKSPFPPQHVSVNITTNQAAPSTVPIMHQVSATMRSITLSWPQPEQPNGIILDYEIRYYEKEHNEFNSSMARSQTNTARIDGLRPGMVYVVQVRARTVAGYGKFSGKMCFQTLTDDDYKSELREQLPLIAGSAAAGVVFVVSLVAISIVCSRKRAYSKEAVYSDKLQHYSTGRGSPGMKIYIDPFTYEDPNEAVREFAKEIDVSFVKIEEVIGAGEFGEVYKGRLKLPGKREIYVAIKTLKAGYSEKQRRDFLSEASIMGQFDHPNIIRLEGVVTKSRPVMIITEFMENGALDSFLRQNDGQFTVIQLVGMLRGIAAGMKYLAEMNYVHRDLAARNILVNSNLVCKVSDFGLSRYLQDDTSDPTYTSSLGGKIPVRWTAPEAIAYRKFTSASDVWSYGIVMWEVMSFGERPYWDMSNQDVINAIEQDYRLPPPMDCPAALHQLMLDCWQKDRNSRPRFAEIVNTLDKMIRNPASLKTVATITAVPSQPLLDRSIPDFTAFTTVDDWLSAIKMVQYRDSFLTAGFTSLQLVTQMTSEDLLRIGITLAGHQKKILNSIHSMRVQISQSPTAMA

EphA4 = EphA4 (Homo sapiens, UniProt P54764)
MAP2K7 = target: T2, MAP2K7 (Homo sapiens, UniProt O14733)
T2 sequence (O14733 1-419): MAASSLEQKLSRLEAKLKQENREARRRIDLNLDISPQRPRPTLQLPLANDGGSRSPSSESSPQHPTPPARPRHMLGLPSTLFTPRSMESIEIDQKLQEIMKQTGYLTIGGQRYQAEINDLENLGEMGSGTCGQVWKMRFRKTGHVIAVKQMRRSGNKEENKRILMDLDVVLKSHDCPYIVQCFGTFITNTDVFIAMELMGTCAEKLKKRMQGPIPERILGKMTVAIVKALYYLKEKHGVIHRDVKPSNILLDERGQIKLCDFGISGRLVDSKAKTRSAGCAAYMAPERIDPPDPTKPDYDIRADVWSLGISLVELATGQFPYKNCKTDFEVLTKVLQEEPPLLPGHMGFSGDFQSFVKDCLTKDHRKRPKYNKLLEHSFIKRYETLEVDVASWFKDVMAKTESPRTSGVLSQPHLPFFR

HIPK2 = HIPK2 (Homo sapiens, UniProt Q9H2X6)
CK1e = CK1e (Homo sapiens, UniProt P49674)
MSSK1 = MSSK1 (Homo sapiens, UniProt Q9UPE1)
FECH = target: T3, FECH (Homo sapiens, UniProt P22830)
T3 sequence (P22830 1-423): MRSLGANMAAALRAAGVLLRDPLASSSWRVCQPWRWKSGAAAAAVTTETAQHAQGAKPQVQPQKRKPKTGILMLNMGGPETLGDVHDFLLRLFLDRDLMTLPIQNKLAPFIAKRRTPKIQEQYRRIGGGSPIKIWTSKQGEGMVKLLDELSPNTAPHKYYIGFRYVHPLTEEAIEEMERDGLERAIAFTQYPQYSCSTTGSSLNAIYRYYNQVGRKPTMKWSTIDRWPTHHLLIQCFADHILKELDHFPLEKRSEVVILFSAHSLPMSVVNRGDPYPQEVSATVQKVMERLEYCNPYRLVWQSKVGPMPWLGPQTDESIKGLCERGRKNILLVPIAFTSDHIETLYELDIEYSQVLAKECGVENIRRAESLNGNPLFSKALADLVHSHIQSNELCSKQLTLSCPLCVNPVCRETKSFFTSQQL

Erk3 = Erk3 (Homo sapiens, UniProt Q16659)
NQO2A = target: T4, NQO2A (Homo sapiens, UniProt P16083)
T4 sequence (P16083 1-231): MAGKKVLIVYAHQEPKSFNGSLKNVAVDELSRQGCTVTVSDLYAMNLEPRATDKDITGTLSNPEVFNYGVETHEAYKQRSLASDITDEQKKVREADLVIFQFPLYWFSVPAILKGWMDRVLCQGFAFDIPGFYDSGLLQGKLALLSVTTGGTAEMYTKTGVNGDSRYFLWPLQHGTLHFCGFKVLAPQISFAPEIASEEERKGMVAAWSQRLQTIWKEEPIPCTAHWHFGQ

MST3 = MST3 (Homo sapiens, UniProt Q9Y6E0)
MST4 = MST4 (Homo sapiens, UniProt Q9P289)
PAK1 = PAK1 (Homo sapiens, UniProt Q13153)
PAK1, sequence (Q13153 whole entry): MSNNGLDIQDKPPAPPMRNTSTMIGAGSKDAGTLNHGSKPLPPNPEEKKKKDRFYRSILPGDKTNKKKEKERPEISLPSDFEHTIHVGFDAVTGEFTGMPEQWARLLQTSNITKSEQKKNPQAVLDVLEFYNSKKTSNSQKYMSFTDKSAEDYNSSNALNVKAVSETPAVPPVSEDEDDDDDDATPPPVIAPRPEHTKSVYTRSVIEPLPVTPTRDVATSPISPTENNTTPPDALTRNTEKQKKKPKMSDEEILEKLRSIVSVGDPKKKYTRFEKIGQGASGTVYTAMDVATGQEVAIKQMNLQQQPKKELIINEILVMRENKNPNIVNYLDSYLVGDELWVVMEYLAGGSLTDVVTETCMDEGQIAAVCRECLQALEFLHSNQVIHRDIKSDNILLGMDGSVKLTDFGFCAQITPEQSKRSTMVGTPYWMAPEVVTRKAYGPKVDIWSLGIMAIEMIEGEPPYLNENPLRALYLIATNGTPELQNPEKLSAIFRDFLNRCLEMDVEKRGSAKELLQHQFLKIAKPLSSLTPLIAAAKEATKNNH

CK1e, sequence (P49674 whole entry): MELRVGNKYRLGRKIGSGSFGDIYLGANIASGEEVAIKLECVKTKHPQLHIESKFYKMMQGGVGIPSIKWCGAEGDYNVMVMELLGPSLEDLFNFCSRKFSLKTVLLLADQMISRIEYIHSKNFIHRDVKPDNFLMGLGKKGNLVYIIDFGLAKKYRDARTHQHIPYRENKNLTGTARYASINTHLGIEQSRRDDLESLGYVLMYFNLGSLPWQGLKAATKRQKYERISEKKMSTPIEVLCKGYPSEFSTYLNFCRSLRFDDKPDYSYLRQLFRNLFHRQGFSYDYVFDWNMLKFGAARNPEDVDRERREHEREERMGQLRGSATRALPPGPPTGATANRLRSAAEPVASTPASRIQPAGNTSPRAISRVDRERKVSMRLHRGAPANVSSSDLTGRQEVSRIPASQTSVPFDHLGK
MST4, sequence (Q9P289 whole entry): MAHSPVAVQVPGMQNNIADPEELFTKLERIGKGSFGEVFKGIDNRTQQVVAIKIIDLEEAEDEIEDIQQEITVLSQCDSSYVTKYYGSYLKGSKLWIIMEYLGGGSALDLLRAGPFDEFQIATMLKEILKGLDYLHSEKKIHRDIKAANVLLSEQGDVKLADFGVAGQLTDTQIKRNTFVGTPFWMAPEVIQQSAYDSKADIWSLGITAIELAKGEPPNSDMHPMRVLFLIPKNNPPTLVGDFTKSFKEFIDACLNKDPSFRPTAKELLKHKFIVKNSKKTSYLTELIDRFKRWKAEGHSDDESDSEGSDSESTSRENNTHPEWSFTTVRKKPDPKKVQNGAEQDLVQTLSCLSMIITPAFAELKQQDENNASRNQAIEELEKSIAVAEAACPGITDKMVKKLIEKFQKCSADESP
HIPK2, sequence (Q9H2X6 whole entry): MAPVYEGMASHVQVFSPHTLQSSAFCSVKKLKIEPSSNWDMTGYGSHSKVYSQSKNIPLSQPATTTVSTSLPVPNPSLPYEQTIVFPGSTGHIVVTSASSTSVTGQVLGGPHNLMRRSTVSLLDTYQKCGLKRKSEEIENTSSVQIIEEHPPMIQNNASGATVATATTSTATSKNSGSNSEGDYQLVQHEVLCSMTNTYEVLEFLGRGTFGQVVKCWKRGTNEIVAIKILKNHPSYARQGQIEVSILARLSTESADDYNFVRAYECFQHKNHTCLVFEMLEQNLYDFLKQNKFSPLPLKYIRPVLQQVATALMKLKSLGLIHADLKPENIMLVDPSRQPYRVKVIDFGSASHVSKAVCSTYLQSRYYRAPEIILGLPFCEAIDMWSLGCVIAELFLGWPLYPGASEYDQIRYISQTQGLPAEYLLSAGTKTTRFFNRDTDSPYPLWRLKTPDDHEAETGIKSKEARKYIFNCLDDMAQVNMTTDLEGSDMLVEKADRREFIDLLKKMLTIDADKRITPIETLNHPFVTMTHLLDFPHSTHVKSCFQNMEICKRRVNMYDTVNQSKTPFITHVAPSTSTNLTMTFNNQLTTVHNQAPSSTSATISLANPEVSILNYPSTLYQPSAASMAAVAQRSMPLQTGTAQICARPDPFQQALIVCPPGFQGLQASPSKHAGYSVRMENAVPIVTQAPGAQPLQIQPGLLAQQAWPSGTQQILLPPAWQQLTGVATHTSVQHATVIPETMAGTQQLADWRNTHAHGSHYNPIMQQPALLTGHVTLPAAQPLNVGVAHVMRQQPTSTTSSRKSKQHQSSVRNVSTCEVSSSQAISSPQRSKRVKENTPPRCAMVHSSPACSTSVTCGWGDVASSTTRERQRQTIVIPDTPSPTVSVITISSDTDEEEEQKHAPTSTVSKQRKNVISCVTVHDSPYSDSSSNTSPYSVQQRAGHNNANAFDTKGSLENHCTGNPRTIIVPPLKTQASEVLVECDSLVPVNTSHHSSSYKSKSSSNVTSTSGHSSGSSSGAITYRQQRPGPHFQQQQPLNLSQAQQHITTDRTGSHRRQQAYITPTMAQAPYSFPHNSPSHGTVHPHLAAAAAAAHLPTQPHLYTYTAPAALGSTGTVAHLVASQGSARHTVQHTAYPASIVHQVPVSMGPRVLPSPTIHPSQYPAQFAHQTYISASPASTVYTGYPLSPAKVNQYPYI
MSSK1, sequence (Q9UPE1 whole entry): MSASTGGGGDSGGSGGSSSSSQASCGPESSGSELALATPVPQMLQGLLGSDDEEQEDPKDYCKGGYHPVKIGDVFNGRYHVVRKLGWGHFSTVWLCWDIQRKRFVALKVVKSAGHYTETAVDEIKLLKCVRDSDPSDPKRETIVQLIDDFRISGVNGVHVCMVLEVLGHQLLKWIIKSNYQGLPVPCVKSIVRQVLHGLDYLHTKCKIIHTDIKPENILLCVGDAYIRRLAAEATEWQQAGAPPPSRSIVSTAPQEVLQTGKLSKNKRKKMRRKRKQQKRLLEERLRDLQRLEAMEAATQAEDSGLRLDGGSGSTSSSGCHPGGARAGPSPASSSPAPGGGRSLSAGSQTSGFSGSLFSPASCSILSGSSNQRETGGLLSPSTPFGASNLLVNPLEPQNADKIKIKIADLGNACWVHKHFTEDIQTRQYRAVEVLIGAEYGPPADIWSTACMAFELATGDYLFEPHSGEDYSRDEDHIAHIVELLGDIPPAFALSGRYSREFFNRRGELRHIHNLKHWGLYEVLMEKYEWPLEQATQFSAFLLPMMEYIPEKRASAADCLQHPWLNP
Erk3, sequence (Q16659 whole entry): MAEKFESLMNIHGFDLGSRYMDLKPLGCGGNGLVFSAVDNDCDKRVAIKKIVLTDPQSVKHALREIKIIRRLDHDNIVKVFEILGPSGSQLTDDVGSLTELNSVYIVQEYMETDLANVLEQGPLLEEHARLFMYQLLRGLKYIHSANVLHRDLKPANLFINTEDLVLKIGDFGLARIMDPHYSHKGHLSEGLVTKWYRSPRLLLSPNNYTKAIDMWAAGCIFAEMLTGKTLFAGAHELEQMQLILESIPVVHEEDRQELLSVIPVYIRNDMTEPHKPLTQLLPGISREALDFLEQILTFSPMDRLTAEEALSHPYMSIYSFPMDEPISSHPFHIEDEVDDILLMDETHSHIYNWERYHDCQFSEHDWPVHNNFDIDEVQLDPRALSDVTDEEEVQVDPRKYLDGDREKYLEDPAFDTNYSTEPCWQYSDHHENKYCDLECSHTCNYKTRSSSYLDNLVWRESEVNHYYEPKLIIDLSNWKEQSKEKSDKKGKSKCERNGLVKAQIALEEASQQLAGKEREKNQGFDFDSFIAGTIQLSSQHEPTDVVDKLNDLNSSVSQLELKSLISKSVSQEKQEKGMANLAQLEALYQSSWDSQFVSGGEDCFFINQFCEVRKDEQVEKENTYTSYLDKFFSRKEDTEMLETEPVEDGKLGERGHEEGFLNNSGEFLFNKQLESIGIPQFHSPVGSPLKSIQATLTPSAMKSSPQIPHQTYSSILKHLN
MST3, sequence (Q9Y6E0 whole entry): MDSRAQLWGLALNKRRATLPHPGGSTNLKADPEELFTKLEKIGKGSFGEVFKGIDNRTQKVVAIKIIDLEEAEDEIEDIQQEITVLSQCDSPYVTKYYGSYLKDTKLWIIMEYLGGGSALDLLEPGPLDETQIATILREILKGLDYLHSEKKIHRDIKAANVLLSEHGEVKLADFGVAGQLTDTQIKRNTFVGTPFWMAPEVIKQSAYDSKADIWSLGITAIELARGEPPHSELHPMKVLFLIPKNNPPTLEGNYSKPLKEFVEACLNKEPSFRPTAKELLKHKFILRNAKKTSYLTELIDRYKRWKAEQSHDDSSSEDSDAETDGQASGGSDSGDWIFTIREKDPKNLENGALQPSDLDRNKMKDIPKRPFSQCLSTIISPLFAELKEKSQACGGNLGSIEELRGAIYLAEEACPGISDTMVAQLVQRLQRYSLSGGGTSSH

For Cc1cccc(-c2ccc(-c3cc4cnc(NCCCc5ccc(N)cc5)nc4n(CCCCN)c3=O)c(Cl)c2)n1 [compound 25, 8-(4-Aminobutyl)-2-((3-(4-aminophenyl)propyl)amino)-6-(2-chloro-4-(6-methylpyridin-2-yl)phenyl)pyrido[2,3-d]pyrimidin-7(8H)-one], the “ΔTm 25” value (EphB1) was 3.0 °C, the “ΔTm 25” value (EphA4) was 1.8 °C and the “ΔTm 25” value (MAP2K7) was 6.7 °C. For the same compound, the “ΔTm 25” value (HIPK2) was 0.8 °C, the “ΔTm 25” value (CK1e) was 8.0 °C and the “ΔTm 25” value (MSSK1) was -0.4 °C. For the same compound, the “ΔTm 25” value (FECH) was 3.0 °C, the “ΔTm 25” value (Erk3) was 1.0 °C and the “ΔTm 25” value (NQO2A) was 0.5 °C.
CNc1ncc2cc(-c3ccc(-c4cccc(C)n4)cc3Cl)c(=O)n(C[C@H]3CC[C@H](N)CC3)c2n1 [compound 23, 23] was tested, and the “ΔTm 23” value (EphB1) was 3.4 °C, the “ΔTm 23” value (EphA4) was 2.9 °C and the “ΔTm 23” value (MAP2K7) was 7.1 °C. For the same compound, the “ΔTm 23” value (HIPK2) was 2.1 °C, the “dTm MST3” value (MST3) was 10.8 °C and the “dTm MST4” value (MST4) was 8.2 °C. The “dTm PAK1” value (PAK1) was 8.4 °C.
CNc1ncc2cc(-c3ccc(-c4cccc(C)n4)cc3Cl)c(=O)n(CCCCN)c2n1 [compound 20, MRLW5] was tested, and the “ΔTm MRLW5 (20)” value (Erk3) was 0.5 °C, the “dTm MST3” value (MST3) was 11.7 °C and the “dTm MST4” value (MST4) was 11.4 °C. The “dTm PAK1” value (PAK1) was 6.5 °C.
In the case of CNc1ncc2cc(-c3ccc(-c4cccc(C)n4)cc3Cl)c(=O)n(CCC3CCNCC3)c2n1 [compound 22, 6-(2-Chloro-4-(6-methylpyridin-2-yl)phenyl)-2-(methylamino)-8-(2-(piperidin-4-yl)ethyl)pyrido[2,3-d]pyrimidin-7(8H)-one], the “ΔTm 22” value (EphB1) is reported as 2.6 °C, the “ΔTm 22” value (EphA4) is reported as 2.5 °C and the “ΔTm 22” value (MAP2K7) is reported as 4.3 °C. The “ΔTm 22” value (HIPK2) was 2.3 °C, the “ΔTm 22” value (CK1e) was 6.8 °C and the “ΔTm 22” value (MSSK1) was -0.1 °C. The “ΔTm 22” value (FECH) was -0.3 °C, the “ΔTm 22” value (NQO2A) was -0.1 °C and the “dTm MST3” value (MST3) was 10.5 °C. The “dTm MST4” value (MST4) was 7.8 °C and the “dTm PAK1” value (PAK1) was 8.6 °C.
Cc1cccc(-c2ccc(-c3cc4cnc(NC(CO)CO)nc4n(CCCCN)c3=O)c(Cl)c2)n1 [compound 24, 8-(4-Aminobutyl)-6-(2-chloro-4-(6-methylpyridin-2-yl)phenyl)-2-((1,3-dihydroxypropan-2-yl)amino)pyrido[2,3-d]pyrimidin-7(8H)-one] was tested, and the “ΔTm MR24 (24)” value (EphB1) was 0.2 °C, the “ΔTm MR24 (24)” value (EphA4) was -0.3 °C and the “ΔTm MR24 (24)” value (MAP2K7) was 3.0 °C. The “ΔTm MR24 (24)” value (HIPK2) was 0.4 °C, the “ΔTm MR24 (24)” value (CK1e) was 6.4 °C and the “ΔTm MR24 (24)” value (MSSK1) was -0.2 °C. For the same compound, the “ΔTm MR24 (24)” value (FECH) was -0.5 °C, the “ΔTm MR24 (24)” value (Erk3) was 0.4 °C and the “ΔTm MR24 (24)” value (NQO2A) was 0.3 °C.
Cc1cccc(-c2ccc(-c3cc4cnc(NCCCN5CCOCC5)nc4n(CCCCN)c3=O)c(Cl)c2)n1 [compound 26, MR26] was tested, and the “ΔTm MR26 (26)” value (EphB1) was 3.7 °C, the “ΔTm MR26 (26)” value (EphA4) was 2.5 °C and the “ΔTm MR26 (26)” value (MAP2K7) was 3.1 °C. The “ΔTm MR26 (26)” value (HIPK2) was 0.4 °C, the “ΔTm MR26 (26)” value (CK1e) was 7.3 °C and the “ΔTm MR26 (26)” value (MSSK1) was -0.3 °C. For the same compound, the “ΔTm MR26 (26)” value (FECH) was 0.3 °C, the “ΔTm MR26 (26)” value (Erk3) was 0.4 °C and the “ΔTm MR26 (26)” value (NQO2A) was 0.1 °C.
